In paper PMC7522982, “PKIS deep dive yields a chemical starting point for dark kinases and a cell active BRSK2 inhibitor” (Scientific Reports, 2020) one finds IC50 and inhibition data, which are given here for one compound.

The term IC50 denotes the concentration that gives 50% inhibition. For orientation: inhibition means the share of the control response that was lost under treatment. A lower inhibition goes with little suppression.

In assay [1] the target is T1, NLuc-BRSK2 in HEK293 cells (Homo sapiens, UniProt Q8IWQ3).
T1 construct: host or cells: HEK293
T1 sequence (Q8IWQ3 1-736): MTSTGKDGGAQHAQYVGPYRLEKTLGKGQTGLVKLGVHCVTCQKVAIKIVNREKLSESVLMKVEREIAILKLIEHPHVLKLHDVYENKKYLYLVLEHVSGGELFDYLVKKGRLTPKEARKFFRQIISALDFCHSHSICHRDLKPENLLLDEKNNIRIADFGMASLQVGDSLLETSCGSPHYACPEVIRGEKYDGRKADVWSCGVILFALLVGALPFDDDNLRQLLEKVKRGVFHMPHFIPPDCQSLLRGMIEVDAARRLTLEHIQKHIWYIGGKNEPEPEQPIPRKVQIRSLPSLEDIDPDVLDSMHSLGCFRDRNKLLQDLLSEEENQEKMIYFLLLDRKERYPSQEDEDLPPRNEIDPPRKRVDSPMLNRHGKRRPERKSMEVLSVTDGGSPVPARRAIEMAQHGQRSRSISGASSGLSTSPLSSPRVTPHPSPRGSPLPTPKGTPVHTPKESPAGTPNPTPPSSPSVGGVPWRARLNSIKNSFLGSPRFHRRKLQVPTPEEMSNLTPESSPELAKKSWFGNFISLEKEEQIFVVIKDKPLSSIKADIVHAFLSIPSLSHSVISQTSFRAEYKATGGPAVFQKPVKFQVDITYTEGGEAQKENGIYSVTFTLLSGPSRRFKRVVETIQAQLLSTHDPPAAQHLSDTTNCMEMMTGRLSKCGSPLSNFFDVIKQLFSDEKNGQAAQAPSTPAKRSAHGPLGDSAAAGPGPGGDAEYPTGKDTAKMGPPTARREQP
The assay can be described thus: BRSK2 NanoBRET cellular target engagement assay. The format is cell-based. Particulars: HEK293 cells transiently expressing NLuc-BRSK2; Tracer K5 1 μM; N = 3; read-out: BRSK2 NanoBRET data IC50. The method, then: Our interest in illuminating BRSK2 biology motivated further investigation of the cellular target engagement of BRSK2 by GW296115 using our NanoBRET assay. BRSK2 kinase was fused to 19-kDa luciferase (NLuc) at its N-terminus (NLuc–BRSK2) which was transiently expressed in HEK293 cells, and then incubated with a cell-permeable fluorescent energy transfer probe (tracer)[23].
NanoBRET assays were executed as described previously. Constructs for BRSK2 NanoBRET measurements were provided in kind by Promega. The N-terminal Nanoluciferase (NL)/BRSK2 fusion (NL-BRSK2) was encoded in pFN32K expression vector, including flexible Gly-Ser-Ser-Gly linkers between NL and BRSK2 (Promega). For cellular BRSK2 NanoBRET target engagement experiments, a 10 μg/mL solution of DNA in Opti-MEM without serum (Gibco) was prepared with 9 μg/mL of Carrier DNA (Promega) and 1 μg/mL of NL-BRSK2 to achieve a total volume of 1.05 mL. To this solution was then added 31.5 μL of FuGENE HD (Promega) to form a lipid:DNA complex, mixed by inversion 8 times, and incubated at room temperature for 20 min. The resulting transfection complex (1.082 mL) was next gently mixed with HEK293 cells (21 mL) suspended at a density of 2 × 10^5 cells/mL in DMEM containing 10% FBS.
After 24 h, media was removed via aspiration and 85 μL of room temperature Opti-MEM without phenol red (Gibco) was added to each well. […] Next, 5 μL (20 × working stock of NanoBRET Tracer K5 [20 μM] in Tracer Dilution Buffer (Promega N291B)) was added to each well with the exception of the “no tracer” control wells. Test compounds were prepared as concentrated stock solutions in 100% DMSO (Sigma) at a concentration of 10 mM. […] A volume of 10 μL of tenfold test compound stock solutions (final assay concentration of […]) was added to each well. For “no compound” and “no tracer” control wells, 10 μL of Opti-MEM plus DMSO (9 μL Opti-MEM plus 1 μL DMSO) was added to each well to achieve a final concentration of 1% DMSO.
After 2 h, plates were returned to room temperature over the course of 15 min. […] Next, 50 μL of the 3 × substrate/extracellular NL inhibitor stock was added to each well.
Test compounds were evaluated at 8 concentrations in competition with NanoBRET Tracer K5 in HEK293 cells transiently expressing the NL-BRSK2 fusion protein. Raw milliBRET (mBRET) values were obtained by dividing the acceptor emission values (600 nm) by the donor emission values (450 nm), and then multiplying by 1000. Averaged control values were used to represent complete inhibition (no tracer control: transfected cells in Opti-MEM + DMSO; tracer control: transfected cells in Opti-MEM + DMSO + Tracer K5 only), and were plotted alongside the raw mBRET values. The data with n = 3 biological replicates was first normalized and then fit using Sigmoidal, 4PL binding curve in Prism Software (version 8, GraphPad, La Jolla, CA, USA).
Background: In BRET a luciferase serves as donor, and the signal depends on an acceptor being close.

Assay [2] addresses DMPK (Homo sapiens, UniProt Q09013). Kind of assay: DiscoverX scanMAX competition binding assay. The arrangement: purchased Eurofins DiscoverX Corporation. The source says: (§1) Based on its narrow profile when tested in the combined Nanosyn and TSA panels, GW296115 was included in the recently released Kinase Chemogenomic Set (KCGS)[15]. All of the data presented in the Introduction section was collected prior to the inclusion of GW296115 in KCGS and everything that follows has been subsequently generated. Since its inclusion in PKIS and more recently KCGS, we have carried out a broader round of screening at DiscoverX. This profiling data has not been previously released and is reported here for the first time. GW296115 was profiled against 403 wild type human kinases at 1 μM using the DiscoverX scanMAX screening platform, which employs an active site-directed competition binding assay to quantitatively measure interactions between test compounds and kinases, [16]. GW296115 inhibited 25 kinases > 90% at 1 μM, resulting in a selectivity index (S10) of 0.062 at 1 μM (Table S2, Fig. 1C)[17].
(§2) The scanMAX assays were performed at Eurofins DiscoverX Corporation as previously described.

Assay [3] concerns the target NUAK1/ARK5 (Homo sapiens, UniProt O60285). Kind of assay: DiscoverX scanMAX competition binding assay. The arrangement: purchased Eurofins DiscoverX Corporation.
From the text: as §1, §2

Assay [4] deals with SGK3 (Homo sapiens, UniProt Q96BR1). Kind of assay: DiscoverX scanMAX competition binding assay. The arrangement: purchased Eurofins DiscoverX Corporation.
From the text: as §1, §2

DMPK, sequence (Q09013 whole entry): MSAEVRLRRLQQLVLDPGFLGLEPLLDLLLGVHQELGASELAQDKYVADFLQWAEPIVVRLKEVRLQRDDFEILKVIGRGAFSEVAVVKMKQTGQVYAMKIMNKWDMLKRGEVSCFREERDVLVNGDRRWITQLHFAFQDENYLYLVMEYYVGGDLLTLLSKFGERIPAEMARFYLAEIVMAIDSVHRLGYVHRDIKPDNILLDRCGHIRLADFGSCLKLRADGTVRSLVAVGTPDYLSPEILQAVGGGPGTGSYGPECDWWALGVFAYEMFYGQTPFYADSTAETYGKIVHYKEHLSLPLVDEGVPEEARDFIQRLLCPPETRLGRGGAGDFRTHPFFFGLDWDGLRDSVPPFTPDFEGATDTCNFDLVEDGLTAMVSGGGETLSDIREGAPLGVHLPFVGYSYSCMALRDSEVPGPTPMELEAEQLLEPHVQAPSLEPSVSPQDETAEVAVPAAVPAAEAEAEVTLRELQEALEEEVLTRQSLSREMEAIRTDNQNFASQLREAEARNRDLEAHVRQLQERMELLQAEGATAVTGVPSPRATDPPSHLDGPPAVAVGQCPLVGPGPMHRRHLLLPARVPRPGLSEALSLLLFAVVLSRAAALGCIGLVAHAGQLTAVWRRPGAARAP
SGK3, sequence (Q96BR1 whole entry): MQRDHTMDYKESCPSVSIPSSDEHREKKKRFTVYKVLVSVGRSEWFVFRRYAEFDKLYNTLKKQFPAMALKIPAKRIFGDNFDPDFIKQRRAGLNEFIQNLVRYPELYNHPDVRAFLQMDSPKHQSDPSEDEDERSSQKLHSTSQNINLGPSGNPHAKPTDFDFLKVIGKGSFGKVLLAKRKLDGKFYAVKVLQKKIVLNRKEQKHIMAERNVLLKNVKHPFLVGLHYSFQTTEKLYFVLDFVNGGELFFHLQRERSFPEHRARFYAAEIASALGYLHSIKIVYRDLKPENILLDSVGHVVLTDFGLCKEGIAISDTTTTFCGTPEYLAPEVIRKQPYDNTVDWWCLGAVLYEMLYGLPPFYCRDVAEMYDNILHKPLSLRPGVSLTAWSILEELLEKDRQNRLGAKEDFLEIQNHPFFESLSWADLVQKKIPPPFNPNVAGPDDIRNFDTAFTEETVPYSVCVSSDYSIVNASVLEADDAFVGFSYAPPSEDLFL
NUAK1/ARK5, sequence (O60285 whole entry): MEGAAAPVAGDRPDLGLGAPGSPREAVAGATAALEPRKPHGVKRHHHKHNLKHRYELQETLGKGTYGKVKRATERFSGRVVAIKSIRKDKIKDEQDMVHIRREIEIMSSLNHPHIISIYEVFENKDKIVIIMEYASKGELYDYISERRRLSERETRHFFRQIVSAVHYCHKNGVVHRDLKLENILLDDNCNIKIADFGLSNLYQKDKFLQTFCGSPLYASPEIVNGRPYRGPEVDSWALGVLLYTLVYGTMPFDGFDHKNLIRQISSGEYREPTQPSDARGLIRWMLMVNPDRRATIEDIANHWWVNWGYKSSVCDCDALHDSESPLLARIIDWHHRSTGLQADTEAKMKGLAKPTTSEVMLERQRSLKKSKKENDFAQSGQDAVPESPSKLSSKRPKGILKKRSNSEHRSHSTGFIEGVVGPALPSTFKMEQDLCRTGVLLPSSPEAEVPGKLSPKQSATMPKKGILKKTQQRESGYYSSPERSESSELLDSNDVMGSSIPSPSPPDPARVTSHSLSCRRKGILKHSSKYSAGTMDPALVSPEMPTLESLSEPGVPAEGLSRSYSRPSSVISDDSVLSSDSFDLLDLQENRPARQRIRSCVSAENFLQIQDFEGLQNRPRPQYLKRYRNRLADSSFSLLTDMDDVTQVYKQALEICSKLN

Regarding `COc1ccc2[nH]c3c4[nH]c5ccc(OC)cc5c4c4c(c3c2c1)C(=O)NC4=O` [GW296115], the IC50 in assay [1] came out at 107 ± 28 nM. For the same compound, the results for the inhibition at 1 µM in assay [2], in assay [3] and in assay [4] were 75%, 85% and 86%, respectively.
